According to PubChem BioAssay (NCI):
Where “and” joins values, the source holds several entries; their conditions need not be identical. Equal entries are not always repeated.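 A five-concentration, 48-hour dose response in 96-well plates underlies each endpoint, interpolated linearly between surrounding concentrations. GI50 marks 50% less growth. The concentration for full growth arrest is given as TGI.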

Experiments:
Test in all cases: inhibition of tumour cell growth, NCI panel, 48 h
CAKI-1 renal = system: CAKI-1 renal
SK-MEL-5 melanoma = system: SK-MEL-5 melanoma
BT-549 breast = system: BT-549 breast
CCRF-CEM leukemia = system: CCRF-CEM leukemia
ACHN renal = system: ACHN renal
NCI-H23 lung = system: NCI-H23 lung
MOLT-4 leukemia = system: MOLT-4 leukemia
HOP-92 NSCLC = system: HOP-92 NSCLC
SF-268 CNS = system: SF-268 CNS
EKVX NSCLC = system: EKVX NSCLC
MDA-N = system: MDA-N
HCT-116 colon = system: HCT-116 colon
M14 melanoma = system: M14 melanoma
SK-OV-3 ovarian = system: SK-OV-3 ovarian
DU-145 prostate = system: DU-145 prostate
KM12 colon = system: KM12 colon
UO-31 renal = system: UO-31 renal
OVCAR-4 ovarian = system: OVCAR-4 ovarian

Structure (SMILES)	TGI (CAKI-1 renal) [µM]	TGI (SK-MEL-5 melanoma) [µM]	TGI (BT-549 breast) [µM]	TGI (CCRF-CEM leukemia) [µM]	TGI (ACHN renal) [µM]	TGI (NCI-H23 lung) [µM]	TGI (MOLT-4 leukemia) [µM]	TGI (HOP-92 NSCLC) [µM]	TGI (SF-268 CNS) [µM]	TGI (EKVX NSCLC) [µM]	TGI (MDA-N) [µM]	TGI (HCT-116 colon) [µM]	TGI (M14 melanoma)	TGI (SK-OV-3 ovarian) [µM]	TGI (DU-145 prostate) [µM]	TGI (KM12 colon) [µM]	TGI (UO-31 renal) [µM]	TGI (OVCAR-4 ovarian) [µM]	GI50 (MDA-N)	GI50 (M14 melanoma)
COc1ccc(Nc2nc3ccccc3nc2C(=O)O)cc1OC	> 100	> 100	> 100	> 100	> 100	> 100	> 100	> 100	> 100	> 100	> 100	> 100	> 100 µM	> 100	> 100	> 100	97.8	–	–	–
O=C(O)c1ccc(Nc2nc3cc(C(F)(F)F)ccc3nc2-c2ccccc2)cc1	50.4	> 100	> 100	> 100	> 100	> 100	> 100	–	> 100	92	> 100	84.5	–	–	95.5	35.3	36.9	–	–	–
O=[N+]([O-])c1cccc2nc3ccccc3c(NCCCN3CCCCC3)c12	0.496	0.0221	0.114	–	0.0472	0.0231	0.0681	0.0434	0.199	0.0401	0.0217	0.0629	0.0232 µM	0.1	0.0295	0.112	–	0.031	–	–
Cn1c2c3c(F)c(F)ccc3nc-2cc2ccccc21	12.2	12.8	20	28	4.68	3.18	> 100	49.1	25.4	26.8	15	–	5.41 µM	21.1	10.2	4.76	7.52	22.9	–	–
C=C1CC(COc2ccc3c(C)cc(=O)oc3c2)(c2ccccc2)OC1=O (centres undefined)	3.55	5.49	3.18	–	7.3	5.53	6.77	1.56	23.9	25.2	5.78	2.73	2.66 µM	14.9	6.68	> 27.7	14.5	–	–	–
N#Cc1c(N)c(C#N)c2c(c1-c1ccc(Cl)cc1)COc1ccccc1-2	–	71.6	65.2	33	38.1	39.9	25	45.5	> 100	28.5	66.4	40.7	> 100 µM	36.9	68.6	> 100	13	30	–	–
O=C(N/N=C(/COc1cccc(Cl)c1)N=Cc1cccnc1)c1ccncc1	> 100	–	> 100	> 100	> 100	> 100	> 100	89.7	> 100	> 100	> 100	> 100	> 100 µM	> 100	> 100	> 100	–	> 100	–	–
Cc1ccc(C)n1-n1c(-c2ccccc2)n[nH]c1=O	> 100	> 100	> 100	> 100	> 100	–	> 100	–	> 100	> 100	70.8	> 100	> 100 µM	> 100	> 100	> 100	> 100	> 100	–	–
CCOC(=O)NC(=S)c1ccc(O)c2ccccc12	> 100	> 100	95.2	46.7	> 100	> 100	> 100	–	> 100	> 100	> 100	> 100	> 100 µM	> 100	> 100	> 100	> 100	> 100	–	–
CCOC(=O)N1[C@@H]2CCC[C@@H]2C(=O)[C@@H]2CCC[C@@H]21	> 100	> 100	> 100	> 100	> 100	> 100	> 100	> 100	> 100	–	> 100	> 100	> 100 µM	> 100	> 100	> 100	–	> 100	–	–
CC(=O)OCC(OC(C)=O)C(OC(C)=O)C(OC(C)=O)C(/C=N\Nc1nc2ccccc2c(=O)[nH]1)=N/Nc1nc2ccccc2c(=O)[nH]1 (centres undefined)	> 100	> 100	> 100	> 100	> 100	> 100	> 100	> 100	> 100	> 100	> 100	> 100	> 100 µM	> 100	> 100	> 100	> 100	–	–	–
COC1(CC[C@H](C)COC2OC(CO)C(O)C(O)C2O)O[C@H]2C[C@H]3[C@@H]4CC=C5C[C@@H](OC6OC(CO)C(O)C(OC7OC(CO)C(O)C(O)C7O)C6OC6OC(C)C(O)C(O)C6O)CC[C@]5(C)[C@H]4CC[C@]3(C)[C@H]2[C@@H]1C (some centres undefined)	10.4	16.9	22.5	> 32.9	36.3	18.9	> 27.3	10.1	15.2	> 51	27	> 32.4	–	24.5	4.29	3.91	4.36	14.9	–	–
COc1ccc(-c2nc(-c3cnccn3)n(COCCO)n2)cc1	–	> 100	> 100	> 100	–	> 100	> 100	> 100	> 100	–	> 100	> 100	> 100 µM	> 100	> 100	> 100	> 100	> 100	–	–
O=c1[nH]c(=O)n(C/C=C/CBr)nc1Br	24.9	25.9	27.7	30.7	25.8	25.5	43.3	26.5	28.5	28.8	27.5	26.3	27.6 µM	–	> 100	28.8	32.5	22.9	–	–
COc1ccc(CNC(=O)[C@H](Cc2ccc(O)cn2)NC(C)=O)cc1	> 100	> 100	> 100	> 100	> 100	> 100	> 100	–	> 100	> 100	> 100	> 100	> 100 µM	> 100	> 100	> 100	> 100	> 100	–	–
N#Cc1c(-c2ccccc2)c(C#N)c(=O)n(C2OC(CO)C(O)C(O)C2O)c1S (centres undefined)	> 100	> 100	> 100	> 100	> 100	> 100	> 100	–	> 100	–	> 100	–	> 100 µM	> 100	> 100	> 100	> 100	–	–	–
CC(=O)Oc1c2oc3cc(O)c(O)cc3c2c(OC(C)=O)c2oc3cc(O)c(O)cc3c12	97.2	38.3	31.1	> 100	74.8	7.38	> 100	–	51	40.1	> 100	38.2	> 100 µM	59.4	–	44.4	42	62.3	–	–
CN1C(=O)C23CCCCC2CC1(c1ccccc1)S3 (centres undefined)	> 100	> 100	> 100	–	> 100	> 100	> 100	> 100	> 100	> 100	> 100	> 100	> 100 µM	> 100	> 100	> 100	> 100	> 100	–	–
CC(=O)O[C@@H]1O[Si](C(C)(C)C)(C(C)(C)C)[C@H](C)[C@H]1C	> 100	> 100	> 100	> 100	> 100	> 100	65.7	–	–	> 100	> 100	> 100	> 100 µM	> 100	–	> 100	> 100	> 100	–	–
CCCCCCCCCc1c(O)c(O)c(CCCCCCCCC)c(CCCCCCCCC)c1CCCCCCCCC	> 100	> 100	> 100	88.6	> 100	> 100	> 100	–	> 100	> 100	> 100	> 100	> 100 µM	> 100	> 100	> 100	–	> 100	–	–
CCN(CC)COC(=S)S	> 100	> 100	> 100	–	> 100	> 100	69	> 100	> 100	> 100	> 100	> 100	> 100 µM	> 100	> 100	> 100	> 100	> 100	–	–
O=C(O)C12C3CCC(O3)C1(C(=O)O)C1CCC2O1 (centres undefined)	> 100	> 100	> 100	> 100	> 100	> 100	> 100	–	> 100	–	> 100	> 100	29.6 µM and > 100 µM	> 100	> 100	> 100	> 100	–	31.3 µM and > 100 µM	16.1 µM and > 100 µM
CCOC(=O)c1[nH]c2nc(SC)nc(Nc3ccccc3Cl)c2c1N	> 100	32.7	82.1	46.8	46.1	60.5	30.5	–	60.9	–	> 100	> 100	> 100 µM	56.7	95.7	> 100	42.7	60.3	–	–
Cc1c(-c2ccccc2)c(C#N)c2nnn(-c3cccc(Cl)c3)c(=O)n12	> 100	> 100	> 100	> 100	> 100	> 100	–	> 100	> 100	> 100	> 100	> 100	–	> 100	> 100	> 100	–	> 100	–	–
CCC1=NC(C(F)(F)F)(C(F)(F)F)N=C(/N=C(/N)N(C)C(C(C)C)P(=O)(OC(C)C)OC(C)C)O1 (centres undefined)	> 100	> 100	> 100	> 100	> 100	> 100	> 100	–	> 100	> 100	> 100	> 100	> 100 µM	> 100	> 100	> 100	> 100	> 100	–	–
CC(C)(C)NC(=O)C12C3C4C1C1C2C3C41C(=O)NC(C)(C)C (centres undefined)	> 100	> 100	> 100	> 100	> 100	> 100	> 100	71.6	> 100	> 100	> 100	> 100	> 100 µM	–	> 100	> 100	> 100	> 100	–	–
COc1ccccc1NC(=S)Nc1cc(C)ccn1	> 100	> 100	> 100	> 100	–	–	> 100	–	> 100	> 100	> 100	> 100	> 100 µM	> 100	> 100	> 100	> 100	> 100	–	–
CCN(CC)CCNc1ccc(C)c2sc3ccccc3c(=O)c12	8.02	5.4	19.4	8.04	11.5	10.3	4.65	–	20.4	19.3	4.04	4.31	3.36 µM	18.1	18.3	10.4	3	18.1	–	–
